Several values for one entry are separate records, joined by “and”; a condition that tells them apart may be missing. Identical values can stand only once.
What was measured:
Format in all cases: cell-based
[1] = system: Chlorella sp.; test: Algal evaluation, Chlorella sp. growth prevention (end point, Kull synergism); conditions: lowest concentration completely preventing growth for three or four weeks, modified Allen's medium pH 7.8, 25° C., 180 ft-candle
Description: The medium used for testing the effectiveness of the invention against algae was modified Allen's medium (see Allen, A. A., Simple conditions for growth of unicellular blue-green algae on plates, JOURNAL OF PHYCOLOGY. 4:1-4 […]). To make modified Allen's medium, the following six individual stock solutions in g/200 ml of deionized water were first prepared: 1.50 g of K2HPO4; 1.50 g of MgSO4.7H20; 0.80 g Na2CO3; 0.5 g CaCl2.2H2O; 1.16 g Na2SiO3.9H2O; 1.20 g citric acid. A micronutrient stock solution was also prepared by adding the following ingredients to 1 liter of deionized water: 0.75 g of Na2EDTA; 0.097 g FeCl3.6H2O; 0.041 g of MnCl2.4H2O; 0.005 g ZnCl2; 0.002 g CoCl2.6H2O; 0.004 g Na2MoO4.2H2O. To make the final modified Allen's medium, the following ingredients and the stock solutions, prepared from above, were combined in a flask and then made up to 1 liter with deionized water: 1.5 g NaNO3; 5 ml K2HPO4; 5 ml MgSO4.7H2O; 5 ml Na2CO3; 10 ml CaCl2.2H2O; 10 ml Na2SiO3.9H2O; 1 ml citric acid; and 1 ml micronutrient stock solution. The pH was adjusted to 7.8. Then the medium was dispensed in 5 ml amounts in test tubes and autoclaved at 121° C. for 20 minutes. After autoclaving, the biocides were added to the medium in the desired concentrations. […]

[2] = system: Pseudomonas aeruginosa; test: Bacterial evaluation, Pseudomonas aeruginosa growth prevention (end point, Kull synergism)
Description: (§1) Nutrient broth (2.5 g/liter of deionized water) was prepared. This was distributed in 5 ml amounts in test tubes and autoclaved at 121° C. for 20 minutes. After addition of the biocides in the desired concentrations to the nutrient broth, 100 microliters of a 24-hour grown suspension of Pseudomonas aeruginosa or Klebsiella pneumoniae cells of approximately 9.3×10^8 cfu/ml were added and incubated at 30° C. for 24 or 48 hours.
(§2) (Busan® 77), poly[hydroxyethylene-(dimethyliminio)-2-hydroxypropylene(dimethyliminio)methylene dichloride] (Busan® 1055 or APCA), or a cross-linked terpolymer of dimethylamine, epichlorohydrin and ethylenediamine (Busan® 1157), (designated component A), and triclosan (designated component B) in a series of tests in varying ratios and a range of concentrations against the fungi Trichoderma viride, and Aspergillus niger, the bacteria Pseudomonas aeruginosa and Klebsiella pneumoniae, and the alga Chlorella sp. using the methods described above.
(§3) End points for the various mixtures were then compared with the end points for the pure active ingredients alone in concomitantly prepared flasks or test tubes.
(§4) Qa=Concentration of compound A in parts per million, acting alone, which produced an end point.
(§5) Qb=Concentration of compound B in parts per million, acting alone, which produced an end point. […]

[3] = system: Trichoderma viride; test: Fungal evaluation, Trichoderma viride growth prevention (end point, Kull synergism); conditions: lowest concentration completely preventing growth for seven days, mineral salts-glucose medium pH 6, 25° C.
Description: Mineral salts-glucose medium was used. To prepare the medium, the following ingredients were added to 1 liter of deionized water: 0.7 g of KH2PO4; 0.7 g of MgSO4.7H2O; 1.0 g of HN4NO3; 0.005 g of NaCl; 0.002 g of FeSO4.7H20; 0.002 g ZnSO4.7H2O; 0.001 g of MnSO4.7H2O; 10 g of Glucose. The pH of the medium was adjusted to 6 with 1N NaOH. The medium was distributed in 5 ml amounts in test tubes and autoclaved at 121° C. for 20 minutes. The fungus, Trichoderma viride or Aspergillus niger, was grown on potato dextrose agar slant for 5 to 10 days and a spore suspension prepared by washing down the spores from the slant into a sterile saline solution. After addition of the biocides in the desired concentrations in the sterile mineral salts-glucose medium, the fungal spore suspension was added. The final spore concentration was approximately 10^6 cfu/ml. The inoculated media was incubated at 25° C. for 7 days.
(Busan® 77), poly[hydroxyethylene-(dimethyliminio)-2-hydroxypropylene(dimethyliminio)methylene dichloride] […]

[4] = system: Klebsiella pneumoniae; test: Bacterial evaluation, Klebsiella pneumoniae growth prevention (end point, Kull synergism); conditions: lowest concentration completely preventing growth for 24 or 48 hours, nutrient broth, 30° C.
Description: as §1, §2, §3, §4, §5

SMILES: Oc1cc(Cl)ccc1Oc1ccc(Cl)cc1Cl [Triclosan, 2,4,4′-tricloro-2′-hydroxydiphenyl ether]
- Ob, quantity producing end point: concentration of component B (triclosan) acting alone [1]: 0.5 ppm and 0.6 ppm
- Ob, quantity producing end point: concentration of component B (triclosan) acting alone ([2]; Pseudomonas aeruginosa, lowest concentration completely preventing growth for 24 or 48 hours, nutrient broth, 30° C.): >500 ppm
- effectiveness against Pseudomonas sp. when used individually ([2]; Pseudomonas sp., component used individually): ineffective
- Ob, quantity producing end point: concentration of component B (triclosan) acting alone [3]: 25 ppm
- Ob, quantity producing end point: concentration of component B (triclosan) acting alone [4]: 0.5 ppm
